The values that follow come from PubChem BioAssay AID1195 (EPA DSSTox, 2008).

This series concerns human maximum recommended daily dose, FDA database. The experiment in a line: DSSTox (FDAMDD) FDA Maximum (Recommended) Daily Dose Database. Particulars: active compounds read low. Summed up: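 MRDD values come from clinical trials with daily oral dosing, usually for 3–12 months, for the average adult, in mg/day converted to mg/kg-bw/day assuming 60 kg. Antineoplastic mg/m2 doses are divided by 37. Activity score maps log10(1/MRDD mmol) onto 1–100.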

Where [1] appears, read: TherapeuticCategory: anti inflammatory.
The mark [2] stands for this setting: TherapeuticCategory: antidepressant.
Where [3] appears, read: TherapeuticCategory: antianginal.
[4] abbreviates: TherapeuticCategory: antineoplastic.
[5] abbreviates: TherapeuticCategory: glucocorticoid.
Setting [6] is: TherapeuticCategory: antibacterial.
The mark [7] stands for this setting: TherapeuticCategory: antipsychotic.
[8] abbreviates: TherapeuticCategory: bronchodilator.
Setting [9] is: TherapeuticCategory: progestogen.
[10] abbreviates: TherapeuticCategory: antihistaminic.
The mark [11] stands for this setting: TherapeuticCategory: antihypertensive.
Setting [12] is: TherapeuticCategory: antispsychotic.

Starred links: 1 amine or outer side, 2 acyl side, 3 side chain; linkers in the order of their positions; H or OH if unused. Positions of bridges follow the written chain, without caps; N, C: chain ends. Non-standard residues stand in square brackets, D forms with d. Residues, ends and D or L forms follow the SMILES beside them. Chains are numbered I, II in the order given. Actinocin(9to1) = Cc1c2oc3c(C)ccc(C(=O)[*:1])c3nc-2c(C(=O)[*:2])c(N)c1=O; NMeV = CN[C@H](C(=O)O)C(C)C; Sar = CNCC(=O)O

Take `O=C(O)c1cccnc1Nc1cccc(C(F)(F)F)c1`: the maximum recommended daily dose (mmol/kg-bw/day) under setting [1] was 0.0443.
Regarding `COc1ccc(C(CN(C)C)C2(O)CCCCC2)cc1` (stereo unspecified), under setting [2], the maximum recommended daily dose (mmol/kg-bw/day) was 0.0225.
For `O=[N+]([O-])O[C@@H]1CO[C@H]2[C@@H]1OC[C@@H]2O`, the maximum recommended daily dose (mmol/kg-bw/day) under setting [3] is 0.0105.
Consider `C[C@@H]1C[C@H]2[C@@H]3CCC4=CC(=O)C=C[C@]4(C)[C@@]3(F)[C@@H](O)C[C@]2(C)[C@@]1(O)C(=O)CO`, for which the maximum recommended daily dose (mmol/kg-bw/day) (TherapeuticCategory: glucocorticoid, anti inflammatory) is 0.000382.
As to `CN1C(=O)CC(C)(c2ccccc2)C1=O` (stereo unspecified), the maximum recommended daily dose (mmol/kg-bw/day) (TherapeuticCategory: anticonvulsant) is 0.0984.
As for `O=NN(CCCl)C(=O)NC1CCCCC1`, under setting [4], the maximum recommended daily dose (mmol/kg-bw/day) was 0.015.
For the molecule `CCC(C)C(CC)C(=O)NC(N)=O` (stereo unspecified), for the setting “TherapeuticCategory: hypnotic”, the maximum recommended daily dose (mmol/kg-bw/day) is 0.0358.
Take `CCN(CC)CCCC(C)Nc1c2ccc(Cl)cc2nc2ccc(OC)cc12` (stereo unspecified): where the note is “TherapeuticCategory: antithelmintic, antimalarial”, the maximum recommended daily dose (mmol/kg-bw/day) is 0.0125.
Turning to `CNS(=O)(=O)CCc1ccc2[nH]cc(C3CCN(C)CC3)c2c1`, the maximum recommended daily dose (mmol/kg-bw/day) (TherapeuticCategory: antimigraine, vasoconstrictor) was 0.000248.
In the case of `CCC(=O)O[C@]1(C(=O)COC(C)=O)CC[C@H]2[C@@H]3C[C@H](C)C4=CC(=O)C=C[C@]4(C)[C@H]3[C@@H](O)C[C@@]21C`, the maximum recommended daily dose (mmol/kg-bw/day) under setting [5] is 0.00882.
For `CCOC(=O)CCC(=O)O[C@H]1[C@H](O[C@@H]2[C@@H](C)[C@H](O[C@H]3C[C@@](C)(OC)[C@@H](O)[C@H](C)O3)[C@@H](C)C(=O)O[C@H](CC)[C@@](C)(O)[C@H](O)[C@@H](C)C(=O)[C@H](C)C[C@@]2(C)O)O[C@H](C)C[C@@H]1N(C)C`, the maximum recommended daily dose (mmol/kg-bw/day) under setting [6] is 0.0774.
In the case of `Cc1cc2c(s1)Nc1ccccc1N=C2N1CCN(C)CC1`, the maximum recommended daily dose (mmol/kg-bw/day) under setting [7] was 0.0008.
In the case of `CC(CC1c2ccccc2CCc2ccccc21)CN(C)C` (stereo unspecified), under setting [2], the maximum recommended daily dose (mmol/kg-bw/day) is 0.00852.
Consider `O=C(OCCN1CCCCC1)C(O)(c1ccccc1)c1ccccc1`, for which the maximum recommended daily dose (mmol/kg-bw/day) (TherapeuticCategory: anticholinergic, antispasmodic) is 0.00392.
Take `COc1cccc(C(=O)CCN[C@@H](C)[C@H](O)c2ccccc2)c1`: the maximum recommended daily dose (mmol/kg-bw/day) under setting [3] is 0.00255.
In the case of `CCN(CCO)CCn1c(Cc2ccccc2)nc2c1c(=O)n(C)c(=O)n2C`, the maximum recommended daily dose (mmol/kg-bw/day) under setting [8] is 0.0778.
`C#C[C@]1(OC(C)=O)CC[C@H]2[C@@H]3CCC4=C[C@@H](OC(C)=O)CC[C@@H]4[C@H]3CC[C@@]21C`: under setting [9], the maximum recommended daily dose (mmol/kg-bw/day) is 4.34e-05.
`CCCC(=O)O[C@H]1[C@H](C)O[C@@H](O[C@H]2[C@H](N(C)C)[C@@H](O)[C@H](O[C@H]3[C@@H](CC=O)C[C@@H](C)[C@@H](O)/C=C/C=C/C[C@@H](C)OC(=O)C[C@@H](O)[C@@H]3OC)O[C@@H]2C)C[C@@]1(C)OC(=O)CC`: under setting [6], the maximum recommended daily dose (mmol/kg-bw/day) is 0.0242.
For `CN(C)CCN(Cc1cccs1)c1ccccn1`, the maximum recommended daily dose (mmol/kg-bw/day) under setting [10] is 0.0255.
For `CC(C)NCC(O)COc1ccc(COCCOC(C)C)cc1` (stereo unspecified), the maximum recommended daily dose (mmol/kg-bw/day) under setting [11] is 0.00102.
Consider `CCCN(CCC)S(=O)(=O)c1ccc(C(=O)O)cc1`, for which, where the note is “TherapeuticCategory: uricosuric”, the maximum recommended daily dose (mmol/kg-bw/day) was 0.0585.
Consider `O=P(O)(O)OCC(Cl)(Cl)Cl`, for which, under “TherapeuticCategory: sedative, hypnotic”, the maximum recommended daily dose (mmol/kg-bw/day) was 0.145.
Turning to `CN(Cc1cnc2nc(N)nc(N)c2n1)c1ccc(C(=O)N[C@@H](CCC(=O)O)C(=O)O)cc1`, the maximum recommended daily dose (mmol/kg-bw/day) (TherapeuticCategory: antineoplastic, antirheumatic) is 0.0011.
Consider `C[C@]12CCC(=O)C=C1CC[C@@H]1[C@@H]2C(=O)C[C@@]2(C)[C@H]1CC[C@]2(O)C(=O)CO`, for which the maximum recommended daily dose (mmol/kg-bw/day) under setting [5] was 0.0139.
With `C[C@]1(Cn2ccnn2)[C@H](C(=O)O)N2C(=O)C[C@H]2S1(=O)=O`, the maximum recommended daily dose (mmol/kg-bw/day) under setting [6] is 0.0833.
Consider `O=c1[nH]c2ccccc2n1C1CCN(CCCC(c2ccc(F)cc2)c2ccc(F)cc2)CC1`, for which, under setting [7], the maximum recommended daily dose (mmol/kg-bw/day) was 0.000362.
`Cc1onc(-c2ccccc2)c1C(=O)N[C@@H]1C(=O)N2[C@@H]1SC(C)(C)[C@@H]2C(=O)O`: the maximum recommended daily dose (mmol/kg-bw/day) under setting [6] is 0.249.
Regarding `CC(C)CC1Nc2cc(Cl)c(S(N)(=O)=O)cc2S(=O)(=O)N1` (stereo unspecified), the maximum recommended daily dose (mmol/kg-bw/day) (TherapeuticCategory: diuretic, antihypertensive) is 0.000707.
With `OCCN1CCN(CCCN2c3ccccc3Sc3ccc(C(F)(F)F)cc32)CC1`, under setting [12], the maximum recommended daily dose (mmol/kg-bw/day) was 0.000761.
On to `CCC[N+]12[C@@H]3C[C@]45c6ccccc6N(C)[C@H]4[C@H]1C[C@H](C3[C@@H]5O)[C@H](CC)[C@H]2O` (stereo partly specified), for which the maximum recommended daily dose (mmol/kg-bw/day) (TherapeuticCategory: antiarryhthmic) was 0.0036.
Consider `CN(C)CCc1c[nH]c2ccc(Cn3cncn3)cc12`, for which, where the note is “TherapeuticCategory: antimigraine”, the maximum recommended daily dose (mmol/kg-bw/day) was 0.00186.
As to `CNC(=O)c1c(I)c(C(=O)NCC(=O)Nc2c(I)c(C(=O)O)c(I)c(C(=O)NCCO)c2I)c(I)c(N(C)C(C)=O)c1I`, where the note is “TherapeuticCategory: diagnostic aid”, the maximum recommended daily dose (mmol/kg-bw/day) is 0.0788.
Consider `CN[C@@H]1[C@H](O[C@H]2[C@H](O[C@H]3[C@H](O)[C@@H](O)[C@H](N=C(N)N)[C@@H](O)[C@@H]3N=C(N)N)O[C@@H](C)[C@]2(O)C=O)O[C@@H](CO)[C@H](O)[C@H]1O`, for which the maximum recommended daily dose (mmol/kg-bw/day) under setting [6] was 0.0344.
With `CCCCC1=NC2(CCCC2)C(=O)N1Cc1ccc(-c2ccccc2-c2nn[nH]n2)cc1`, under setting [11], the maximum recommended daily dose (mmol/kg-bw/day) is 0.0117.
As to `CCN(CC)C(C)C(=O)c1ccccc1` (stereo unspecified), where the note is “TherapeuticCategory: anorexic”, the maximum recommended daily dose (mmol/kg-bw/day) was 0.00609.
`Cc1ccc2c(-c3ccccc3)nc(=O)n(C(C)C)c2c1`: the maximum recommended daily dose (mmol/kg-bw/day) under setting [1] is 0.0719.
Regarding `COc1cc(NCc2ccc3nc(N)nc(N)c3c2C)cc(OC)c1OC`, under setting [4], the maximum recommended daily dose (mmol/kg-bw/day) is 0.0033.
Turning to `CC[N+]1(C)[C@@H]2CC(OC(=O)[C@H](CO)c3ccccc3)C[C@H]1[C@@H]1O[C@@H]12` (stereo partly specified), the maximum recommended daily dose (mmol/kg-bw/day) under setting [8] is 2.43e-05.
For `Nc1nc(N)c2nc(-c3ccccc3)c(N)nc2n1`, the maximum recommended daily dose (mmol/kg-bw/day) (TherapeuticCategory: diuretic) was 0.0131.
Turning to `C#C[C@]1(O)CC[C@H]2[C@@H]3CCC4=CC(=O)CC[C@@H]4[C@H]3CC[C@@]21C`, the maximum recommended daily dose (mmol/kg-bw/day) under setting [9] was 5.6e-05.
Regarding `Nc1cc(-c2ccncc2)c[nH]c1=O`, the maximum recommended daily dose (mmol/kg-bw/day) (TherapeuticCategory: cardiotonic) was 0.00401.
For `Cc1c2oc3c(C)ccc(C(=O)N[C@@H]4C(=O)N[C@H](C(C)C)C(=O)N5CCC[C@H]5C(=O)N(C)CC(=O)N(C)[C@@H](C(C)C)C(=O)O[C@@H]4C)c3nc-2c(C(=O)N[C@@H]2C(=O)N[C@H](C(C)C)C(=O)N3CCC[C@H]3C(=O)N(C)CC(=O)N(C)[C@@H](C(C)C)C(=O)O[C@@H]2C)c(N)c1=O` (I: T[dV]P[Sar][NMeV] / II: T[dV]P[Sar][NMeV]; ester I:1-I:C, II:1-II:C; linker I:N-II:N via Actinocin(9to1)), the maximum recommended daily dose (mmol/kg-bw/day) under setting [4] was 1.19e-05.
Regarding `O=C(O)Cc1ccccc1Nc1c(Cl)cccc1Cl`, the maximum recommended daily dose (mmol/kg-bw/day) under setting [1] is 0.0127.
With `CCCCCCCCCC(=O)OCCN1CCN(CCCN2c3ccccc3Sc3ccc(C(F)(F)F)cc32)CC1`, the maximum recommended daily dose (mmol/kg-bw/day) under setting [12] is 0.000563.
Regarding `COc1ccc(OC)c(C(O)C(C)N)c1` (stereo unspecified), under “TherapeuticCategory: adrenergic”, the maximum recommended daily dose (mmol/kg-bw/day) was 0.00158.
Take `O=C1NC(=O)C(c2ccccc2)(c2ccccc2)N1`: the maximum recommended daily dose (mmol/kg-bw/day) (TherapeuticCategory: anticonvulsant, antiepileptic) was 0.0198.
Consider `COC(=O)[C@H](c1ccccc1Cl)N1CCc2sccc2C1`, for which, where the note is “TherapeuticCategory: antithrombotic”, the maximum recommended daily dose (mmol/kg-bw/day) was 0.00388.
Turning to `Clc1ccc2nsnc2c1NC1=NCCN1`, for the setting “TherapeuticCategory: skeletal muscle relaxant”, the maximum recommended daily dose (mmol/kg-bw/day) was 0.00236.
As for `Cc1ccc(/C(=C/CN2CCCC2)c2ccccn2)cc1`, under setting [10], the maximum recommended daily dose (mmol/kg-bw/day) is 0.0006.
For `CCn1ccc(NS(=O)(=O)c2ccc(N)cc2)nc1=O`, the maximum recommended daily dose (mmol/kg-bw/day) under setting [6] was 0.0567.
Turning to `C#C[C@]1(O)CC[C@H]2[C@@H]3CCC4=Cc5oncc5C[C@]4(C)[C@H]3CC[C@@]21C`, the maximum recommended daily dose (mmol/kg-bw/day) (TherapeuticCategory: antigonadotropin) is 0.0394.
